Experimental data taken from PMC3387161, “Small Molecules Targeted to a Non-Catalytic “RVxF” Binding Site of Protein Phosphatase-1 Inhibit HIV-1” (PLoS ONE, 2012).
Values joined by “and” are separate entries in the source; they are usually repeats but may differ in a detail not shown here. Identical values can stand only once.

Columns and labels:
[1] = system: CEM cells; assay: Toxicity by propidium iodide fluorescence in CEM-GFP cells; assay type: cell-based; conditions: Homo sapiens, CCRF-CEM, 3 µM to 45 µM, 24 h
[2] = target: T1, recombinant PP1α (Oryctolagus cuniculus, UniProt P62139); assay: Malachite green dephosphorylation of RVxF-containing hybrid pRb peptides by PP1α; assay type: biochemical
T1 construct: purchased New England Biolabs, Ipswich, MA
Source text: Here, we analyzed the effect of 1H4 on the binding of the Tat RVxF sequence to PP1 using hybrid PP1 substrates containing a substrate phosphopeptide linked to RVxF-containing sequences derived from Tat or NIPP1. As the substrate phosphopeptide, we used a retinoblastoma protein-derived HIPR(pS)[…] peptide (pRb) that is efficiently dephosphorylated by PP1 but not by the enzymatically-related PP2A [13]. The pRb peptide was linked to an extended RVxF-containing sequence derived from Tat ([…]) (pRb-Tat peptide) or the central domain of NIPP1 ([…]). To visualize the interaction between pRb-Tat and PP1 we built a computational model of the pRb-Tat peptide with PP1 complex (described in Materials and Methods). Based on this model, the pRb-Tat peptide is able to bind to the RVxF- accommodating groove of PP1 and, at the same time, to reach the active site of PP1 without any tension (Fig. 5A, green spheres; Fig. 5B, gray sticks). The pRb-Tat peptide was efficiently dephosphorylated by PP1 in vitro (Fig. 5C, V0 = 0.31 µM·min^-1). […] Addition of 1H4 at 3-fold molar excess (480 µM) over pRb-Tat (160 µM) inhibited pRb-Tat dephosphorylation and reduced the rate of dephosphorylation (Fig. 5C, V0 = 0.19 µM·min^−1) to the rate of pRb-Tat QACA dephosphorylation (Fig. 5C, V0 = 0.17 µM⋅min^−1). […] To further investigate the effect of 1H4 on the dephosphorylation of the pRb-Tat peptide, we analyzed the initial velocity versus pRb-Tat peptide substrate concentration plots. […] This was expected because the dephosphorylation site and the RVxF-containing sequence were fused into one hybrid substrate and 1H4 interferes with the binding of this substrate to PP1.
Figure 5 1H4 compound competes with RVxF motif. A. Superimposition of pRb-Tat peptide on the complex of PP1 with Spinophilin. PP1 surface is colored after the atom types. The spinophilin peptide is shown as magenta ribbon and the pRb-Tat peptide as orange ribbon. The Val25 and Phe27 residues of pRb-Tat and the Ile449 and Phe 451 residues of Spinophilin are shown as sticks. The 2-(N-morpholino)-ethanesulfonic acid bound in the active site of PP1 is shown in green spheres. The phosphorylated Ser6 residue of pRb-Tat peptide is shown as sticks. B. Phosphorylated Ser 6 residue binds to the active site of PP1. Comparative superimposition of pRb-Tat peptide over the crystal structure of MES bound in the active site of PP1. Catalytic resides are shown as sticks. MES is shown as green sticks, and the phosphorylated Ser6 residue of pRb-Tat peptide is shown as orange sticks. The pRb-Tat peptide is shown as orange ribbon. C. 1H4 inhibits kinetics of pRb-Tat peptide dephosphorylation by PP1α. Recombinant PP1α was assayed with pRb-Tat (WT or QACA mutant, 120 µM) in the absence or presence of 1H4 as indicated. The reactions were stopped at indicated time points and the phosphate release was quantified by malachite green assay. Initial velocity was calculated by linear regression in Prism. D. 1H4 inhibits kinetics of pRb-cdNIPP dephosphorylation by PP1α. Recombinant PP1α was assayed with pRb-cdNIPP1 in the absence or presence of 1H4 as indicated. Mutant pRb cdNIPP1 pA-RATA was used as negative control. The reactions were stopped at indicated time points and the phosphate release was quantified by malachite green assay. Initial velocity was calculated by linear regression in Prism. […] Initial rates of pRb-Tat peptide dephosphorylation by PP1α were assayed at the indicated concentrations of the substrate in the absence or presence of 300 µM 1H4 or non-HIV-1 inhibitory 1G3. The amount of the released phosphate was quantified with malachite green.
Malachite green dephosphorylation assays were carried out with the Ser/Thr phosphatase assay kit (Upstate, Lake Placid, NY) using recombinant PP1α (New England Biolabs, Ipswich, MA). […]

T1 sequence (P62139 whole entry): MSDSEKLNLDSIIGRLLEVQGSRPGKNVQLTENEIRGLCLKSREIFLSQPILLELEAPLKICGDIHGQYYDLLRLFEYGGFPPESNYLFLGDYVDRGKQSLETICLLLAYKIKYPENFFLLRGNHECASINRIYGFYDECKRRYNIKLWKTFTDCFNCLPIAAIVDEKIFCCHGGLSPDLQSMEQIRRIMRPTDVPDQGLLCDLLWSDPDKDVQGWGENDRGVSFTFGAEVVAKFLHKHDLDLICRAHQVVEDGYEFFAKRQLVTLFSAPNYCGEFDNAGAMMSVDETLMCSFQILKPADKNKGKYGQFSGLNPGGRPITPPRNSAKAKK

Question: What does the source list for COCCNC(=O)COC(=O)c1c2c(nc3ccccc13)/C(=C/c1ccc(O)cc1)CCC2 [1H4]?
Answer: IC50 [1]: > 25 µM; Effect on and mode of inhibition of pRb-Tat dephosphorylation by PP1α ([2]; 300 µM compound, Lineweaver-Burk plot): competitive; pRB-Tat VMAX ([2]; 300 µM compound, control 16.67, 25% of substrate assumed phosphorylated): 18.20; V0 of pRb-cdNIPP1 dephosphorylation by PP1α in presence of compound ([2]; 1H4 added): 0.37 µM·min^-1 and 0.37 ± 0.01 µM·min^-1; V0 of pRb-Tat dephosphorylation by PP1α in presence of compound ([2]; 1H4 at 3-fold molar excess (480 µM) over pRb-Tat (160 µM)): 0.19 µM·min^-1 and 0.19 ± 0.01 µM·min^-1
